In patent EP0538689A1, “Substituted 2,3-dihydropyrans, method for their preparation and their use as medicaments” (BAYER AG, priority 1991, dated 1993):
Where a name gives a salt, the structure may show the parent alone.

Test system: C. albicans
Test: Mouse candidosis model, antimycotic in vivo efficacy
Parameters: species or system Männliche CF₁-SPF-Mäuse
Details: mice infected i.v. with 1-3 x 10⁶ Sprosszellen von C. albicans, surviving/total animals
Experimental: Die erfindungsgemäßen Verbindungen wurden in den Applikationsarten i.v., s.c. und orale Gabe am Modell der Mäuse-Candidose auf ihre antimykotische in vivo-Wirksamkeit geprüft: Männliche CF₁-SPF-Mäuse wurden mit 1-3 x 10⁶ Sprosszellen von C. albicans pro Tier durch Injektion der Keimsuspension in phys. NaCl-Lösung (0,2 ml/Tier) in die Schwanzvene infiziert. Nicht behandelte Kontrolltiere entwickeln unter diesen Infektionsbedingungen eine Nierencandidose und sterben zu 95-100% der eingesetzten Tiere innerhalb 6 Tagen p.i. an dieser Infektion. Wurden infizierte Tiere täglich 2 mal, beginnend mit dem Tag der Infektion, mit den erfindungsgemäßen Verbindungen oral oder parenteral in Dosen 2 x 25 bis 2 x 50 mg/kg Körpergewicht über 2 - 5 Tage behandelt, so überleben 60-90% der Tiere die Infektion in gutem Zustand. Die C.albicans-Keimzahlen in den Nieren der infizierten und behandelten Tiere liegen am 4. Tag p.i. durchschnittlich um 2 Zehnerpotenzen unter denen von unbehandelten, infizierten Kontrolltieren. Tabelle A

| SMILES | Zahl der überl. Tiere (Dosis 2 × 50 mg/kg/d, App. po) | Zahl der überl. Tiere (Dosis 2 × 25 mg/kg/d, App. sc) |
| --- | --- | --- |
| COC(=O)[C@H]1OCC=C[C@H]1N [Beispiel 1, (2S,3R)-3-Amino-2,3-dihydro-6H-pyran-2-carbonsäuremethylester Hydrochlorid] | 7/10 | – |
| N[C@H]1C=CCO[C@H]1C(=O)O [Beispiel 17, (2R,3S)-3-Amino-2,3-dihydro-6H-pyran-2-carbonsäure-hydrochlorid] | – | 3/10 |
| COC(=O)[C@H]1OCC=C[C@H]1NC(=O)OC(C)(C)C [Beispiel VII] | 8/10 | – |
